According to patent publication US12611398B2 (ORPHAI THERAPEUTICS INC., priority 2014, dated 2026):
Values joined by “and” are separate entries in the source; they are usually repeats but may differ in a detail not shown here. Equal entries are not always repeated. “Also recorded” adds a separate entry of the source. Where two headings read alike, the source gives them in different places.

Assays:
[1] = Rapamycin in lung and blood after oropharyngeal aspiration (OPA) and oral gavage, LC-MS/MS; assay type: in vivo, C57BL/6 mice
Experimental: Dosing: Each animal was weighed prior to dosing to determine the amount of dose to be administered. A single gavage dose was administered using a 100-μL glass syringe (Hamilton, Reno, Nev.) fitted with a ball-tipped 20-G stainless steel gavage dosing needle (Popper & Sons Inc., New Hyde Park, N.Y.). The dose administered to each animal was determined from the weight of the full syringe minus that of the empty syringe. The dosing time was recorded. Dosing of animals was spaced apart to allow blood collection at the appropriate times. The dose formulations administered to each group are shown below.
Each mouse was anesthetized with isoflurane and restrained with the mouth open. The tongue was held to one side of the mouth with forceps, and the dose was slowly injected into the distal part of the oral cavity. The nostrils were covered with a finger for two breaths to ensure aspiration (Rao et al., 2003).
Collection of Blood and Lung Samples: At study termination (1 or 72 h after dosing), mice were anesthetized by exposure to CO2, and blood was collected by cardiac puncture with dipotassium EDTA as anticoagulant. Lung tissue was excised and divided into the right and left lung. The left lung was used for analysis, and the right lung flash frozen in liquid nitrogen and stored at −70° C. for further analysis.
Triamcinolone was used as internal standard.
Lung homogenate was prepared by homogenization of weighed lung samples with 2.8-mm ball bearings in a homogenizer with tissue+deionized water (1:3 w/v) in a SPEX SamplePrep 2010 Geno/Grinder.
The concentrations of standards were arranged so that each standard came from an alternate stock standard. A six-point calibration curve, each made in triplicate, was employed for analyte quantitation. A simple linear regression model with or without weighting was employed for curve fitting. The concentration range determined was from 1-2000 ng/mL in blood and 2-2000 ng/mL in lung homogenate.
Thirty (30) μL of matrix, 30 μL of spiking solution (methanol for blanks and samples), 10 μL Internal standard solution (in MeOH) and 90 μL of MeOH were pipetted into microcentrifuge tubes, vortexed briefly, then centrifuged for 6 min at 10,000 RPM at −4° C. Aliquots (90 μL) of supernatant were transferred to LC vial inserts, and then analyzed by LC-MS/MS (Table 2).

[2] = Observation for adverse effects / clinical signs after dosing; assay type: in vivo, C57BL/6 mice; settings: 1 mg/kg, up to 72 h following dosing
Experimental: The oral dose was formulated using pharmaceutical oral liquid formulation Rapamune Oral® (Pfizer). […] An additional group of 6 mice received vehicle only (10% ethanol in water). […] At the 72-h necropsy, blood was obtained by cardiac puncture and the lungs removed.
The time of dosing was recorded as 0. Animals in groups 2 and 3 were euthanized at 1 h after dosing.

[3] = system: phosphorylated S6 (mTOR pathway); assay: S6 phosphorylation by western blot in AML cells; assay type: cell-based, human; settings: 20 nM, 24 hours
[4] = system: phosphorylated S6 protein (biomarker for mTOR activity); assay: S6 phosphorylation in mouse lung following oral and OPA administration; assay type: in vivo, C57bl/6 mice
Source text: To validate this approach, we used the presence of phosphorylated S6 protein in murine lung tissue as a biomarker for mTOR activity. In the mouse strain used (C57b1/6), the mouse airway and alveolar epithelial cells have constitutively active (phosphorylated, “p”) S6 protein. The S6 protein is typically phosphorylated by S6K which is downstream of mTORC1 and is activated, for example downstream of growth factors such as epidermal growth factor (EGF), AKT, ERK, and RSK. mTORC1 promotes cell growth and proliferation by stimulating anabolic processes such as biosynthesis of lipids, proteins, and organelles, and suppressing catabolic processes such as autophagy.

[5] = system: Phospho-S6 Ribosomal Protein (Ser240/244); assay: S6 phosphorylation in rat lung homogenate, western blot (S6-P/total S6); assay type: in vivo, Sprague-Dawley rats; settings: inhalation, target dose 0.354 mg/kg
Experimental: Lungs samples from each animal were collected and snap frozen. The individual frozen lung samples were homogenized (Qiagen TissueLyser LT according to manufacturer's protocols) in 1×RIPA Buffer with protease and phosphatase inhibitors. […] The Western blot images were analyzed by NIH image) v1.48 to generate the respective antibody reactivity/intensity and create the ratio of S6 phosphorylation (S6-P) to total S6 intensities for each lung sample. The 56-P/total S6 ratios (y-axis) for sample organized by timepoint group (X-axis) were plotted on a one grouping variable scatter plot vertical graph (GraphPad, version 4.0), all samples in groups are represented by filled in black dots (●) on the graph and average is shown by the horizontal line between the dots within each respective group (FIG. 8B).

[6] = 28-day repeat daily dose inhalation toxicity and toxicokinetics, dog study 7300227; settings: beagle, in vivo
Source text: For the dog study, a positive flow delivery system (PFDS) consisting of a central plenum and delivery arms was utilized. The central plenum was of modular design with separate ports into which were attached 5 delivery arms fitted with oronasal exposure masks fitted with inlet and outlet tubes. The mask was fitted over the dog's muzzle in such a way that the nose was inside the mask, allowing entrance and exit of air. During exposure, animals wore a harness and were placed on a restraint platform. The harness was attached to two side poles on the platform in order to restrict lateral movement of the dog. The front part of the harness was loosely attached to a hook on the front of the platform to prevent the animal from turning around. […] For each dosing group, one set of animals (N=6) was dosed for 60 minutes each day for 28 consecutive days.

[7] = Extrapolation of rat and dog inhalation data to human dosing; settings: extrapolated
[8] = Particle size distribution by laser diffraction; assay type: physicochemical
Experimental: For jet milling, a lab scale MCOne unit from Jetpharma was used with the following operating conditions: venturi pressure 2-4 bar, milling pressure 3-5 bar, feed rate 90 g/h. For wet polishing, feed suspensions were prepared using purified water. A microfluidics high pressure homogenizer was used for the size reduction step and the resulting suspension was spray-dried. Details of the wet polishing process are set forth below.
The high pressure homogenizer used for the size reduction step of the wet polishing process was a pilot-scale Microfluidics High Pressure Homogenizer equipped with an auxiliary processing module (200 micron) and a 100 micron interaction chamber was used. The unit was operated at ˜455 bar (˜30 bar in the intensifier module hydraulic pressure). After microfluidization the fluid was removed by spray drying to generate a dry powder. A laboratory scale spray dryer, SD45 (BÜCHI, model B-290 Advanced) was equipped with a two fluid nozzle (cap and diameter were 1.4 and 0.7 mm, respectively). Two cyclones in series were used (being the first the standard Buchi cyclone and the second the high-performance Buchi cyclone) to collect the dried product. The spray drying unit was operated with nitrogen and in single pass mode, i.e. without recirculation of the drying nitrogen. The aspirator, blowing nitrogen, was set at 100% of its capacity (flow rate at maximum capacity is approximately 40 kg/h). The flow rate of the atomization nitrogen was adjusted to a value in the rotameter of 40±5 mm. Before feeding the product suspension, the spray dryer was stabilized with purified water, during which the flow rate was adjusted to 6 ml/min (20% in the peristaltic pump). The inlet temperature was adjusted to achieve the target outlet temperature (45° C.). After stabilization of the temperatures, the feed of the spray dryer was commuted from purified water to the product suspension (keeping the same flow rate used during stabilization) and the inlet temperature once again adjusted in order to achieve the target outlet temperature. At the end of the stock suspension, the feed was once more commuted to purified water in order to rinse the feed line and perform a controlled shut down. The dry product in the collection flasks under both cyclones was weighed and the yield calculated as the mass percentage of the dry product in relation to the total solids in the suspension fed to the high pressure homogenizer.
Particle size distribution was analyzed by laser diffraction. Solid state characterization (for polymorphic form and purity) was performed by high pressure liquid chromatography (HPLC), X-ray powder diffraction (XRPD), and differential scanning calorimetry (mDSC). Water content was determined by the Karl Fischer method.

[9] = IV 10 mg/kg single dose, 24 hours; cited from earlier work
[10] = 24 hours after 14th dose, cited from earlier work
[11] = human, Rapamune NDA 21-110 and 21-083; cited from earlier work
[12] = lymphangioleiomyomatosis patients, McCormack et al. (2011); cited from earlier work
in vivo = settings: Sprague-Dawley, rat
Experimental: (§1) A second repeat exposure study was conducted to evaluate the repeat dose toxicity and toxicokinetics of the dry powder formulation administered to SD rats and Beagle dogs for 28 days.
(§2) For the rat study, standard cylindrical flow-through nose-only inhalation chambers were utilized, as above. […] For each of the three dosing groups, one set of animals (N=36) were dosed for 300 minutes each day for 28 consecutive days. On Study Days 1 and 28, blood samples were taken from animals in subgroups of 6 at the following time points: (1) Predose, (2) Midway dosing, (3) Immediate post dosing, (4) 2 hours post dosing, (5) 4 hours post dosing, (6) 12 hours post dosing and (7) 24 hours post dosing.

[13] = system: TSC2 deficient TRI-AML101 cell line; assay: Cell viability, CellTiter-Glo luminescence assay, 10 point dose response; settings: 72 hours after compound addition, relative to DMSO control
Experimental: Two thousand cells in 50 uL of growth media (DMEM, 10% FBS, and 1% Penicillin/Streptomycin) were plated per well in a 96 well plate. […] 72 hours after compound addition, relative cell viability was determined by CellTiter-Glo® luminescence assay (Promega) and expressed as a percentage relative to vehicle (DMSO) treated control cells.

[14] = 28-day repeat daily dose inhalation toxicity and toxicokinetics, rat study 7300225; settings: for Max blood levels: rat, average of D28
Experimental: as §1, §2

[15] = 2012 meta-analysis of published trials; cited from earlier work
[16] = emitted dose 87 ug, repeat inhaled daily dose 35 ug
[17] = emitted dose 175 ug, repeat inhaled daily dose 70 ug

## CO[C@H]1C[C@@H]2CC[C@@H](C)[C@@](O)(O2)C(=O)C(=O)N2CCCC[C@H]2C(=O)O[C@H]([C@H](C)C[C@@H]2CC[C@@H](O)[C@H](OC)C2)CC(=O)[C@H](C)/C=C(\C)[C@@H](O)[C@@H](OC)C(=O)[C@H](C)C[C@H](C)/C=C/C=C/C=C/1C [Rapamycin]
[1]; OPA 1 mg/kg, 72 h
  Rapamycin in Blood: below the limit of quantitation; also recorded: undetectable
[1]; OPA 1 mg/kg, 72 h post-dose, individual animal
  Blood concentration: <ELOQ
[1]; gavage (Rapamune Oral) 1 mg/kg, 1 h post-dose, individual animal, 1 mg/kg
  Lung concentration: <LOQ
[1]; oral (gavage) 1 mg/kg, 72 hrs
  rapamycin in lung or blood: undetectable
[2]
  adverse effects / clinical signs: No adverse effects were observed; also recorded: No significant clinical signs were observed
[3]
  S6 phosphorylation: potently inhibits S6 phosphorylation
[4]; 1 mg/kg OPA, 1 hr
  level of phosphorylated S6 (pS6) in lung: reduced substantially
[4]; 1 mg/kg OPA, 72 hr
  level of phosphorylated S6 (pS6) in lung: remained suppressed
[4]; 1 mg/kg oral gavage, 1 hr
  level of phosphorylated S6 (pS6) in lung: reduced substantially
[5]
  S6 phosphorylation in lung tissue: Inhibits S6 Phosphorylation
[6]
  NOAEL at 28 days: 0.0134 mg/kg/day
[7]; [16]
  Blood trough levels: 0.15 ng/mL
  Lung 24 hr trough levels: 2 ng/g
  Max blood levels: 0.65 ng/mL
[7]; [17]
  Blood trough levels: 0.3 ng/mL
  Lung 24 hr trough levels: 4 ng/g
  Max blood levels: 1.3 ng/mL
[8]; jet milling
  PSD Dv10: 1.5 μm and 1.51 μm
  PSD Dv50: 2.7 μm and 2.74 μm
  PSD Dv90: 4.9 μm and 4.91 μm
[8]; wet polishing
  PSD Dv10: 1.0 μm and 1.05 μm
  PSD Dv50: 2.4 μm and 2.42 μm
  PSD Dv90: 5.0 μm and 4.97 μm
[9]
  Rapamycin in Blood: 31 ng/mL
  Rapamycin in Lung: 721 ng/g
[10]; IV 0.04 mg/kg/day
  Rapamycin in Blood: 9.4 ng/mL
  Rapamycin in Lung: 219 ng/g
[10]; IV 0.08 mg/kg/day
  Rapamycin in Blood: 15.0 ng/mL
  Rapamycin in Lung: 457 ng/g
[10]; IV 0.40 mg/kg/day
  Rapamycin in Blood: 19.6 ng/mL
  Rapamycin in Lung: 868 ng/g
[10]; oral 0.4 mg/kg/day
  Rapamycin in Blood: 0.8 ng/mL
  Rapamycin in Lung: 42 ng/g
[10]; oral 0.8 mg/kg/day
  Rapamycin in Blood: 2.1 ng/mL
  Rapamycin in Lung: 59 ng/g
[11]
  clearance: 0.0003 min⁻¹
[12]
  blood concentrations: 5 to 15 ng/mL
In vivo
  NOAEL at 28 days: 8.91 mg/kg/day
[13]
  lowest concentration inhibiting viability: 0.05 nM
[14]; nose-only inhalation
  respiratory function: no changes in respiratory function
[14]; emitted dose 50 ug, repeat inhaled daily dose 5 ug
  Max blood levels: 7.6 ng/mL
[14]; emitted dose 1425 ug, repeat inhaled daily dose 143 ug
  Max blood levels: 70.5 ng/mL
[14]; emitted dose 2850 ug, repeat inhaled daily dose 285 ug
  Max blood levels: 77.8 ng/mL

## CO[C@H]1C[C@@H]2CC[C@@H](C)[C@@](O)(O2)C(=O)C(=O)N2CCCC[C@H]2C(=O)O[C@H]([C@H](C)C[C@@H]2CC[C@@H](OCCO)[C@H](OC)C2)CC(=O)[C@H](C)/C=C(\C)[C@@H](O)[C@@H](OC)C(=O)[C@H](C)C[C@H](C)/C=C/C=C/C=C/1C [everolimus]
[15]
  cancer patients experiencing mild grade pulmonary toxicity: 10%

## CO[C@H]1C[C@@H]2CC[C@@H](C)[C@@](O)(O2)C(=O)C(=O)N2CCCC[C@H]2C(=O)O[C@H]([C@H](C)C[C@@H]2CC[C@@H](OC(=O)C(C)(CO)CO)[C@H](OC)C2)CC(=O)[C@H](C)/C=C(\C)[C@@H](O)[C@@H](OC)C(=O)[C@H](C)C[C@H](C)/C=C/C=C/C=C/1C [temsirolimus]
[15]
  cancer patients experiencing mild grade pulmonary toxicity: 10%
